{"source": "patent EP1198478B1", "about": "“SOMATOSTATIN ANALOGS AND THEIR USE FOR THE TREATMENT OF CANCER” (Dabur Research Foundation, priority 2000, dated 2002)", "format_in_all_cases": "cell-based", "details_in_all_cases": "48 hours", "key": {"[1]": {"test_system": "PTC (primary human colon cancer cell line)", "experiment": "MTT cytotoxicity assay, PTC cells", "source_text": "(§1) The cytotoxic effect of peptides SEQ ID NO: 2, SEQ ID NO: 3, SEQ ID NO: 6, and SEQ ID NO: 9, was studied by MTT assay which is based on the principle of uptake of MTT [3-[4,5-dimethylthiazol-2-yl]-2,5-diphenyl tetrazolium bromide], a tetrazolium salt by the metabolically active cells where it is metabolized by active mitochondria into a blue colored formazan product which can be read spectrophotometrically. Briefly, tumor cells PTC (primary human colon cancer cell line), KB (Oral squamous), U87MG (Glioblastoma), HBL100 (Breast), HeP2 (Laryngeal), ECV304 (Endothelial), PA-1 (Ovary) and L132 (Lung) were incubated with the peptide analogs for 48 hours at 37°C in a 96-well culture plate, followed by the addition of 100 µg MTT and further incubation of 1 hour. The formazan crystals formed inside the cells were dissolved with a detergent comprising 10% Sodium dodecyl sulfate and 0.01 N HCl and optical density read on a multiscan ELISA reader. The optical density was directly proportional to the number of proliferating and metabolically active cells."}, "ECV304 (Endothelial)": {"test_system": "ECV304 (Endothelial)", "experiment": "MTT cytotoxicity assay, ECV304 cells", "source_text": "as §1"}, "KB (Oral squamous)": {"test_system": "KB (Oral squamous)", "experiment": "MTT cytotoxicity assay, KB cells", "source_text": "as §1"}, "PA-1 (Ovary)": {"test_system": "PA-1 (Ovary)", "experiment": "MTT cytotoxicity assay, PA-1 cells", "source_text": "as §1"}, "HBL100 (Breast)": {"test_system": "HBL100 (Breast)", "experiment": "MTT cytotoxicity assay, HBL100 cells", "source_text": "as §1"}, "HeP2 (Laryngeal)": {"test_system": "HeP2 (Laryngeal)", "experiment": "MTT cytotoxicity assay, HeP2 cells", "source_text": "as §1"}, "U87MG (Glioblastoma)": {"test_system": "U87MG (Glioblastoma)", "experiment": "MTT cytotoxicity assay, U87MG cells", "source_text": "as §1"}, "L132 (Lung)": {"test_system": "L132 (Lung)", "experiment": "MTT cytotoxicity assay, L132 cells", "source_text": "as §1"}}}
{"substance": "D-Phe-Cys-Tyr-D-Trp-Lys-Ac5c-Pen-Thr-NH2 [SEQ ID NO: 6]", "values": [{"measurement": "Percentage cytotoxicity", "setting": "[1]; 1nM", "value": "12±1.5", "unit": "%"}, {"measurement": "Percentage cytotoxicity", "setting": "[1]; 10 nM", "value": "11 ± 7.1", "unit": "%"}, {"measurement": "Percentage cytotoxicity", "setting": "[1]; 1µM", "value": "9 ± 2.1", "unit": "%"}, {"measurement": "Percentage cytotoxicity", "setting": "[1]; 100n M", "value": "8 ± 5.2", "unit": "%"}, {"measurement": "Percentage cytotoxicity", "setting": "ECV304 (Endothelial); 1nM", "value": "18.9 ± 3.9", "unit": "%"}, {"measurement": "Percentage cytotoxicity", "setting": "ECV304 (Endothelial); 10 nM", "value": "24.9 ± 3.8", "unit": "%"}, {"measurement": "Percentage cytotoxicity", "setting": "ECV304 (Endothelial); 1µM", "value": "7.9 ± 1.6", "unit": "%"}, {"measurement": "Percentage cytotoxicity", "setting": "ECV304 (Endothelial); 100n M", "value": "13.9 ± 2.9", "unit": "%"}, {"measurement": "Percentage cytotoxicity", "setting": "KB (Oral squamous); 1nM", "value": "28.0 ± 1.2", "unit": "%"}, {"measurement": "Percentage cytotoxicity", "setting": "KB (Oral squamous); 10 nM", "value": "23.0 ± 4.8", "unit": "%"}, {"measurement": "Percentage cytotoxicity", "setting": "KB (Oral squamous); 1µM", "value": "12.9 ± 1.1", "unit": "%"}, {"measurement": "Percentage cytotoxicity", "setting": "KB (Oral squamous); 100n M", "value": "19.0 ± 5.2", "unit": "%"}, {"measurement": "Percentage cytotoxicity", "setting": "PA-1 (Ovary); 1nM", "value": "19.4 ± 1.0", "unit": "%"}, {"measurement": "Percentage cytotoxicity", "setting": "PA-1 (Ovary); 10 nM", "value": "25.9 ± 1.4", "unit": "%"}, {"measurement": "Percentage cytotoxicity", "setting": "PA-1 (Ovary); 1µM", "value": "8.0 ± 3.3", "unit": "%"}, {"measurement": "Percentage cytotoxicity", "setting": "PA-1 (Ovary); 100n M", "value": "22.6 ± 2.2", "unit": "%"}, {"measurement": "Percentage cytotoxicity", "setting": "HBL100 (Breast); 1nM", "value": "15.7 ± 4.5", "unit": "%"}, {"measurement": "Percentage cytotoxicity", "setting": "HBL100 (Breast); 10 nM", "value": "14.5 ± 2.8", "unit": "%"}, {"measurement": "Percentage cytotoxicity", "setting": "HBL100 (Breast); 1µM", "value": "8.0 ± 1.4", "unit": "%"}, {"measurement": "Percentage cytotoxicity", "setting": "HBL100 (Breast); 100n M", "value": "12.6 ± 3.2", "unit": "%"}, {"measurement": "Percentage cytotoxicity", "setting": "HeP2 (Laryngeal); 1nM", "value": "8.0 ± 3.6", "unit": "%"}, {"measurement": "Percentage cytotoxicity", "setting": "HeP2 (Laryngeal); 10 nM", "value": "14.8 ± 4.4", "unit": "%"}, {"measurement": "Percentage cytotoxicity", "setting": "HeP2 (Laryngeal); 1µM", "value": "10.6 ± 2.4", "unit": "%"}, {"measurement": "Percentage cytotoxicity", "setting": "HeP2 (Laryngeal); 100n M", "value": "11.0 ± 2.5", "unit": "%"}, {"measurement": "Percentage cytotoxicity", "setting": "U87MG (Glioblastoma); 1nM", "value": "39.0 ± 3.5", "unit": "%"}, {"measurement": "Percentage cytotoxicity", "setting": "U87MG (Glioblastoma); 10 nM", "value": "40.4 ± 2.4", "unit": "%"}, {"measurement": "Percentage cytotoxicity", "setting": "U87MG (Glioblastoma); 1µM", "value": "39.5 ± 1.2", "unit": "%"}, {"measurement": "Percentage cytotoxicity", "setting": "U87MG (Glioblastoma); 100n M", "value": "42.9 ± 1.4", "unit": "%"}, {"measurement": "Percentage cytotoxicity", "setting": "L132 (Lung); 1nM", "value": "14.9 ± 1.2", "unit": "%"}, {"measurement": "Percentage cytotoxicity", "setting": "L132 (Lung); 10 nM", "value": "25.7 ± 4.8", "unit": "%"}, {"measurement": "Percentage cytotoxicity", "setting": "L132 (Lung); 1µM", "value": "13.7 ± 5.8", "unit": "%"}, {"measurement": "Percentage cytotoxicity", "setting": "L132 (Lung); 100n M", "value": "22.9 ± 2.6", "unit": "%"}]}
{"substance": "D-Phe-Cys-Tyr-D-Trp-Orn-Aib-Pen-Thr-NH2 [SEQ ID NO: 9]", "values": [{"measurement": "Percentage cytotoxicity", "setting": "ECV304 (Endothelial); 1nM", "value": "18.0 ± 2.9", "unit": "%"}, {"measurement": "Percentage cytotoxicity", "setting": "ECV304 (Endothelial); 10 nM", "value": "23.9 ± 3.1", "unit": "%"}, {"measurement": "Percentage cytotoxicity", "setting": "ECV304 (Endothelial); 1µM", "value": "12.9 ± 1.6", "unit": "%"}, {"measurement": "Percentage cytotoxicity", "setting": "ECV304 (Endothelial); 100n M", "value": "19.9 ± 2.6", "unit": "%"}, {"measurement": "Percentage cytotoxicity", "setting": "KB (Oral squamous); 1nM", "value": "28.0 ± 1.6", "unit": "%"}, {"measurement": "Percentage cytotoxicity", "setting": "KB (Oral squamous); 10 nM", "value": "27.0 ± 4.8", "unit": "%"}, {"measurement": "Percentage cytotoxicity", "setting": "KB (Oral squamous); 1µM", "value": "12.0 ± 1.2", "unit": "%"}, {"measurement": "Percentage cytotoxicity", "setting": "KB (Oral squamous); 100n M", "value": "18.0 ± 5.2", "unit": "%"}, {"measurement": "Percentage cytotoxicity", "setting": "PA-1 (Ovary); 1nM", "value": "4.6 ± 1.0", "unit": "%"}, {"measurement": "Percentage cytotoxicity", "setting": "PA-1 (Ovary); 10 nM", "value": "12.8 ± 1.4", "unit": "%"}, {"measurement": "Percentage cytotoxicity", "setting": "PA-1 (Ovary); 1µM", "value": "16.6 ± 3.1", "unit": "%"}, {"measurement": "Percentage cytotoxicity", "setting": "PA-1 (Ovary); 100n M", "value": "22.7 ± 2.2", "unit": "%"}, {"measurement": "Percentage cytotoxicity", "setting": "HBL100 (Breast); 1nM", "value": "26.9 ± 2.6", "unit": "%"}, {"measurement": "Percentage cytotoxicity", "setting": "HBL100 (Breast); 10 nM", "value": "23.9 ± 4.4", "unit": "%"}, {"measurement": "Percentage cytotoxicity", "setting": "HBL100 (Breast); 1µM", "value": "7.9 ± 1.2", "unit": "%"}, {"measurement": "Percentage cytotoxicity", "setting": "HBL100 (Breast); 100n M", "value": "14.9 ± 2.2", "unit": "%"}, {"measurement": "Percentage cytotoxicity", "setting": "HeP2 (Laryngeal); 1nM", "value": "15.6 ± 3.6", "unit": "%"}, {"measurement": "Percentage cytotoxicity", "setting": "HeP2 (Laryngeal); 10 nM", "value": "21.4 ± 4.4", "unit": "%"}, {"measurement": "Percentage cytotoxicity", "setting": "HeP2 (Laryngeal); 1µM", "value": "19.9 ± 2.4", "unit": "%"}, {"measurement": "Percentage cytotoxicity", "setting": "HeP2 (Laryngeal); 100n M", "value": "27.9 ± 2.5", "unit": "%"}, {"measurement": "Percentage cytotoxicity", "setting": "U87MG (Glioblastoma); 1nM", "value": "13.9 ± 2.5", "unit": "%"}, {"measurement": "Percentage cytotoxicity", "setting": "U87MG (Glioblastoma); 10 nM", "value": "29.7 ± 2.4", "unit": "%"}, {"measurement": "Percentage cytotoxicity", "setting": "U87MG (Glioblastoma); 1µM", "value": "42.9 ± 1.2", "unit": "%"}, {"measurement": "Percentage cytotoxicity", "setting": "U87MG (Glioblastoma); 100n M", "value": "53.3 ± 1.4", "unit": "%"}, {"measurement": "Percentage cytotoxicity", "setting": "L132 (Lung); 1nM", "value": "14.9 ± 2.6", "unit": "%"}, {"measurement": "Percentage cytotoxicity", "setting": "L132 (Lung); 10 nM", "value": "26.1 ± 4.8", "unit": "%"}, {"measurement": "Percentage cytotoxicity", "setting": "L132 (Lung); 1µM", "value": "12.9 ± 1.8", "unit": "%"}, {"measurement": "Percentage cytotoxicity", "setting": "L132 (Lung); 100n M", "value": "22.8 ± 2.6", "unit": "%"}]}
